Like-named read-outs stand apart in the source and are kept apart here.
Assays:
[1] = test system: primary rat hepatocytes; assay: WST-1 cytotoxicity assay with primary rat hepatocytes; assay type: cell-based, rat (Sprague–Dawley)
Method: The monocrotaline-induced liver toxicity was tested in vitro using the WST-1 assay which measures the formazan formation by the metabolically active cells from WST-1. Pooled cryopreserved plateable male rat (Sprague–Dawley) hepatocytes (RTCP10™) were thawed and seeded in accordance with the manufacturer’s protocol. Briefly, cells were seeded in 96-well plates (Greiner bio-one, Alphen aan den Rijn, The Netherlands) at a concentration of 5 × 10^5 cells/ml to give 1.25 × 10^4 cells/well and incubated at 37 °C, 5% CO2 in a humidified atmosphere for 6 h to allow cell adherence. […] The solvent DMSO (0.5% (v/v) final concentration in exposure medium) was used as a negative control and triton X (final concentration 1% (v/v) in exposure medium) served as a positive control in all cytotoxicity assays. After exposure for 24 h, 5 μl (1:20 dilution) WST-1 reagent was added to each well and plates were incubated for an additional 1 h. Then, the plate was shaken at 1000 rpm for 1 min, and absorbance was measured at 440 nm (background absorbance at 620 nm was subtracted) using a SpectraMax M2 (Molecular Devices, Sunnyvale, USA).
Data are presented as mean values ± SE from three independent experiments with three different batches of rat hepatocytes. The cell viability was expressed as percentage of the solvent control, with the solvent control set at 100%. The obtained concentration–response curves for hepatotoxicity were fitted with a symmetrical sigmoidal model (Hill slope) which was further used to derive IC50 values using log [inhibitor] vs. normalized response using GraphPad Prism software (version 5.00 for Windows, GraphPad software, San Diego, USA).

[2] = Substrate depletion in incubations with pooled rat liver microsomes; assay type: in vitro ADME, rat (Sprague–Dawley)
Method: (§1) After 5 min of pre-incubation in a shaking water bath at 37 °C, the reactions were started by the addition of 1 mM NADPH. The reactions were carried out for 1 h and 2 h for liver and intestinal microsomes, respectively. For each incubation, a corresponding control incubated in the absence of NADPH was included by adding buffer instead of NADPH. To stop the metabolic conversion, 100 µl of ice-cold methanol was added and the sample was put on ice, then centrifuged at 5000 × g for 20 min at 4 °C using a microcentrifuge (CT15RE, VWR, Leuven, Belgium). Supernatants were diluted 200 times in 90% (v/v) acetonitrile and transferred to LC–MS vials. LC–MS analysis was performed using a Shimadzu Nexera XR LC-20AD SR UPLC system in tandem with a Shimadzu LCMS-8040 mass spectrometer (Shimadzu, Kyoto, Japan). From each incubation, 1 µl of supernatant was loaded onto a Luna Omega polar C18 100A LC column (1.6 µm 100 × 2.1 mm, Phenomenex) fitted with a FP polar precolumn (Phenomenex), using a flow rate of 0.3 ml/min. The temperature was set at 40 °C and 5 °C for column and sample, respectively. The mobile phase consisted of ultrapure water (solvent A) and acetonitrile (solvent B) both containing 0.1% (v/v) formic acid. The gradient began with 100% solvent A (0% B) for 1 min to wash away unwanted salts, followed by a linear gradient from 0 to 5% B till 8 min and a further increase to 100% B in 2 min, keeping the elution at 100% B for 0.5 min, then the column was set back to the starting conditions and equlibrated for 3.4 min before the next injection. […] For all incubations, three independent replicates were performed.
(§2) The ratio of Vmax and Km was calculated as the in vitro catalytic efficiency (kcat) expressed in […]. […] The rat liver weight of 8.5 g and small intestine weight of 3.5 g (see Table 1) (Brown et al. [1997]) were used to scaled the in vivo kcat values to values expressed in ml/min/tissue.

[3] = Substrate depletion in incubations with pooled rat intestinal microsomes; assay type: in vitro ADME, rat (Sprague–Dawley)
Method: as §1, §2

[4] = test system: primary rat hepatocytes; assay: Uptake of monocrotaline into primary rat hepatocytes (Tu et al. 2013); assay type: cell-based; settings: scaled with 120 mg protein/g liver and 34 g liver/kg bw from Tu et al. ([2013])
[5] = test system: male Sprague–Dawley rats; settings: IP single dose 0; 100; 200; 225; 300, 12 h after dosing, BW 100–130 g; ref Copple et al. [2002]; cited from earlier work
[6] = set-up: method as in Estep et al. 1991; settings: rat, iv 60 mg/kg bw, ref Estep et al. 1991, cited from earlier work
[7] = test system: HepaRG cells; set-up: method as in Louisse et al. ([2019]); settings: 24 h exposure; ref Louisse et al. ([2019]); cited from earlier work
[8] = test system: human liver cell line HepaRG; settings: in vitro γH2AX induction potency, ref Louisse et al. ([2019]); cited from earlier work
[9] = test system: DNA adducts; set-up: method as in Xia et al. ([2013]); settings: moderate tumour formation; ref Xia et al. ([2013]); cited from earlier work
[10] = set-up: method as in Lester et al. ([2019]); settings: ref Lester et al. ([2019]); cited from earlier work
[11] = set-up: method as in IARC [2019]; settings: possibly carcinogenic in humans; ref IARC [2019]; cited from earlier work
[12] = liver, 35 mg microsomal protein/g liver, present study
[13] = intestine, 20.6 mg microsomal protein/g small intestine, present study
[14] = small intestine, PBK model code

## C[C@H]1C(=O)O[C@@H]2CCN3CC=C(COC(=O)[C@](C)(O)[C@]1(C)O)[C@H]23 [Monocrotaline]
[1]; Rattus norvegicus, Hepatocyte, 24 h exposure, serum-free medium, WST-1, read-out: IC50 cell viability
  IC50: 225 µM
[1]; highest concentration 600 µM, 24 h
  decrease in cell viability: over 60%
[2]; Sprague-Dawley, rat, pH 7.4, liver, present study
  Km: 9.2 µM
[2]; liver
  scaled liver kcat, times lower than lasiocarpine: 41.8 times
  scaled liver kcat, times lower than riddelliine: 4.3 times
[2]; liver weight 8.5 g, present study
  Scaled kcat: 1.9 ml/min/ tissue
[2]; [12]
  Scaled Vmax: 2.1 nmol/min/g tissue
  Scaled kcat: 0.2 ml/min/g tissue
[2]; liver, PBK model code
  KmLM1, affinity constant: 9.22 µmol/L
  VmaxLM1c, unscaled maximum rate of metabolism: 0.06 nmol/min-1/mg protein
[2]; liver, present study
  Vmax: 0.06 nmol/min/mg microsomal protein
[3]; Sprague-Dawley, rat, pooled rat intestinal microsomes, pH 7.4, intestine, present study
  Km: 13.4 µM
[3]; [13]
  Scaled Vmax: 0.4 nmol/min/g tissue
  Scaled kcat: 0.03 ml/min/g tissue
[3]; intestine, present study
  Vmax: 0.02 nmol/min/mg microsomal protein
[3]; small intestine weight 3.5 g, present study
  Scaled kcat: 0.1 ml/min/ tissue
[3]; [14]
  KmSiM2, affinity constant: 13.39 µmol/L
  VmaxSiM2c, unscaled maximum rate of metabolism: 0.02 nmol/min-1/mg protein
[4]
  rate for uptake in the liver of rats, scaled: 3.55 µmol/h/kg bw
[5]
  POD: NOAEL, increased plasma ALT: 100 mg/kg bw
[6]; 5 min
  Reported concentration of monocrotaline equivalents, RBCs: 144.00 µM
  Reported concentration of monocrotaline equivalents, plasma: 113.00 µM
[6]; 15 min
  Reported concentration of monocrotaline equivalents, RBCs: 113.46 µM
  Reported concentration of monocrotaline equivalents, plasma: 81.88 µM
[6]; 30 min
  Reported concentration of monocrotaline equivalents, RBCs: 100.06 µM
  Reported concentration of monocrotaline equivalents, plasma: 67.35 µM
[6]; 60 min
  Reported concentration of monocrotaline equivalents, RBCs: 100.13 µM
  Reported concentration of monocrotaline equivalents, plasma: 49.84 µM
[6]; 120 min
  Reported concentration of monocrotaline equivalents, RBCs: 104.89 µM
  Reported concentration of monocrotaline equivalents, plasma: 29.65 µM
[6]; 180 min
  Reported concentration of monocrotaline equivalents, RBCs: 99.93 µM
  Reported concentration of monocrotaline equivalents, plasma: 21.82 µM
[6]; 240 min
  Reported concentration of monocrotaline equivalents, RBCs: 99.60 µM
  Reported concentration of monocrotaline equivalents, plasma: 17.11 µM
[6]; 300 min
  Reported concentration of monocrotaline equivalents, RBCs: 79.81 µM
  Reported concentration of monocrotaline equivalents, plasma: 13.07 µM
[6]; 360 min
  Reported concentration of monocrotaline equivalents, RBCs: 85.50 µM
  Reported concentration of monocrotaline equivalents, plasma: 12.16 µM
[6]; 420 min
  Reported concentration of monocrotaline equivalents, RBCs: 81.00 µM
  Reported concentration of monocrotaline equivalents, plasma: 11.00 µM
[7]
  cytotoxicity in HepaRG cells: did not exhibit cytotoxicity
[8]
  potency group: group 3
[9]
  ranking based on the formation of DNA adducts: group II
[10]
  metabolic stability: metabolically stable
[11]
  IARC carcinogenicity category: 2B

From article PMC7415757, “Monocrotaline-induced liver toxicity in rat predicted by a combined in vitro physiologically based kinetic modeling approach” (Archives of Toxicology, 2020)
